Legend:
[1] = system: isolated perfused rat hearts; assay: Load independent inotropic effects, ex vivo assay (isolated perfused rat hearts, Langendorff); conditions: percent change over vehicle
Text: Evidence for Load Independent Inotropic Effects with APJ Agonists using Ex Vivo Assay (Isolated Perfused Rat Hearts)
Naive Sprague Dawley® SD rats (Harlan laboratories (Livermore, Calif. USA)) were anesthetized and hearts were excised followed by cannulation in the Langendorff apparatus (Harvard apparatus, Holliston, Mass. USA) via aorta. […] The pressure of the solution causes the aortic valve to shut and the perfusate is then forced into the ostium and the coronary vessels. This allows the heart to beat for several h. A balloon was inserted into the left ventricle (LV) to measure dP/dtmax (derivative of left ventricular pressure) as an index of cardiac contractility. The APJ agonist was perfused constantly in a dose dependent manner into the heart to examine cardiac contractility.

human APJ receptor = human APJ receptor (Homo sapiens (Human), UniProt P35414); assay: biochemical; type: biochemical; conditions: read-out: Activity hAPJ SPA EC50 IP
Method in brief: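 Membranes from CHO cells stably expressing cloned human APJ were incubated with WGA SPA beads in 20 mM HEPES pH 7.5, 5 mM MgCl2, 0.1% BSA, 200 mM NaCl and 3 μM GDP. Reaction started with 0.2 nM [35S]GTPγS ± ligands, 90 min at RT. EC50 obtained by non-linear regression as mean of independent experiments.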

heart failure rat model = assay: Cardiac contractility in vivo in heart failure rat model (MI rat model); conditions: for MI Rat Model dP/dtmax (%): in vivo, heart failure (MI) rat model, acute administration for 30 min; for cardiac contractility as measured by dP/dtmax (derivative of left ventricular pressure): male Lewis rats, heart failure by ligation of left descending coronary artery, ejection fraction <35%, dosed acutely for 30 min
Description: Male Lewis rats (Charles River, USA) at 2-3 months of age were used for the study. […] APJ agonists were administered dose dependently acutely for a period of 30 min.

heart failure rats = assay: Cardiac function with APJ small molecule agonists in the presence of ACE inhibitor captopril in heart failure rats in vivo; parameters: species or system rat; conditions: captopril alone, acute settings
Text: The interaction between […] (ACE2) and Apelin biology is complicated. To investigate the interaction between the Apelin-APJ and ACE signalling pathways, we examined the improvement in cardiac function with APJ small molecule agonists in the presence of ACE inhibitor captopril in heart failure rats in vivo.

[2] = system: isolated perfused rat hearts; assay: Langendorff isolated perfused rat heart (left ventricular dP/dt); conditions: ex vivo naive Sprague Dawley rat hearts, Langendorff apparatus, as a function of concentration
APJ/AT1R = APJ/AT1R (Homo sapiens (Human), UniProt P30556+P35414); assay: IP1 assay (TR-FRET) for allosteric interaction between APJ and AT1R in CHO-K1 APJ/AT1R cells; type: cell-based; conditions: addition of losartan
Sequence of APJ/AT1R (P35414 whole entry, looked up): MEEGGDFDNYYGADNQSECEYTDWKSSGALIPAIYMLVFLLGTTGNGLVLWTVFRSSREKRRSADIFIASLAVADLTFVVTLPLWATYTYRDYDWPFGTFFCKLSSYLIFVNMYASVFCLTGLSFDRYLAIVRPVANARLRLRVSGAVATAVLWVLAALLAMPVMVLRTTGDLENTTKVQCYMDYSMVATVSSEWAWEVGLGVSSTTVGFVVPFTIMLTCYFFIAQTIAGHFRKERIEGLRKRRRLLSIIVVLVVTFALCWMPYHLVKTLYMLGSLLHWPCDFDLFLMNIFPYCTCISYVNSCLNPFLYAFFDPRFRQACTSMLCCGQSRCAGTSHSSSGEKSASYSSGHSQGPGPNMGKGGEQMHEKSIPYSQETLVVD
Sequence of APJ/AT1R (P30556 whole entry, looked up): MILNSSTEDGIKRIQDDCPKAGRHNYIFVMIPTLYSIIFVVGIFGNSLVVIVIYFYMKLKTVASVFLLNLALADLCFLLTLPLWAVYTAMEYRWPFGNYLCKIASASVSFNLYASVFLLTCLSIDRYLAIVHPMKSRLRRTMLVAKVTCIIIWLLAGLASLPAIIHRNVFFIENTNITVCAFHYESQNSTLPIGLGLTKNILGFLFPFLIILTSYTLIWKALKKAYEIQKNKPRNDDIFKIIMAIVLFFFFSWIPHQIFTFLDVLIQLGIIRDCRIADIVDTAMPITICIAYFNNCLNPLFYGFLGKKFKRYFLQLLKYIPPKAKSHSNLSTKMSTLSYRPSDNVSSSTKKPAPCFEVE
Description: Single and double stable recombinant cell lines were generated for human APJ and the AT1R receptor in CHO K1 cells tagged either with FLAG or hemagglutinin (HA) tag. Briefly, the CHO-K1 APJ/AT1R cells were seeded in culture medium of DMEM-F12 and 10% FBS at a density of 15 k/well in a 96 well plate overnight. The next day, the culture medium was replaced with medium containing no serum for 4 hours. The compound AngII at a range of concentrations (1 pM-10 μM) with or without different concentrations of APJ agonists were diluted in stimulation buffer and added to the cell plate. The plate was sealed and incubated for 1 hour. This was followed by addition of IP-d2 conjugate followed by europium cryptate antibody conjugate into the wells. The plate was sealed, followed with incubation for 2 hours at room temperature. Time-resolved fluorescence resonance energy (TR-FRET) at 620 nm and 665 nm was measured after 2 hours with an Envision reader. The signal ratios and delta F were calculated and the amount of IP1 produced was inversely proportional to the TR-FRET ratio, 665/620 nm.

Sequence of human APJ receptor (P35414 whole entry): as the sequence (P35414 whole entry, looked up) above

Molecule | Isolated Heart Assay dP/dtmax (%) [1] [%] | Isolated Heart Assay dP/dtmin (%) [1] [%] | EC50 (human APJ receptor) [nM] | cardiac contractility as measured by dP/dtmax (derivative of left ventricular pressure) (heart failure rat model) | left ventricular dP/dtmax (load independent cardiac contractility) [2] | left ventricular dP/dtmin (load independent cardiac relaxation) [2] | other results
COc1cccc(OC)c1-n1c(NS(=O)(=O)[C@H](C)[C@@H](OC)c2ccc(Cl)cn2)nnc1-c1cccnc1 (single isomer, unassigned) [Example 531.0, (1S,2R)-1-(5-chloro-2-pyridinyl)-N-(4-(2,6-dimethoxyphenyl)-5-(3-pyridinyl)-4H-1,2,4-triazol-3-yl)-1-methoxy-2-propanesulfonamide or (1R,2S)-1-(5-chloro-2-pyridinyl)-N-(4-(2,6-dimethoxyphenyl)-5-(3-pyridinyl)-4H-1,2,4-triazol-3-yl)-1-methoxy-2-propanesulfonamide] | 4.1 | 1.9 | 0.2 |  |  |  | 
COc1cccc(OC)c1-n1c(NS(=O)(=O)[C@H](C)[C@@H](OC)c2ncc(Cl)cn2)nnc1-c1cncc(C)c1 (single isomer, unassigned) [Example 557.0] | 17.0 | 20.0 | 0.31 |  |  |  | MI Rat Model dP/dtmax (%) (heart failure rat model): No effect
C[C@H](CS)C(=O)N1CCC[C@H]1C(=O)O [Captopril, captopril] |  |  |  |  |  |  | contractility (heart failure rats): does not show a marked improvement; ejection fraction (heart failure rats): does not show a marked improvement
COc1cccc(OC)c1-n1c(NS(=O)(=O)[C@@H](C)[C@H](O)c2ncc(C)cn2)nnc1-c1cccc(C)n1 [Example 99.0, (1R,2S)-N-(4-(2,6-dimethoxyphenyl)-5-(6-methylpyridin-2-yl)-4H-1,2,4-triazol-3-yl)-1-hydroxy-1-(5-methylpyrimidin-2-yl)propane-2-sulfonamide] |  |  | 2.3 | increase in cardiac contractility | increases load independent cardiac contractility | increases load independent cardiac relaxation | 
CCO[C@H](c1ncc(C)cn1)[C@H](C)S(=O)(=O)Nc1nnc(-c2cccnc2)n1-c1c(OC)cccc1OC [Example 109.0, (1R,2S)-N-(4-(2,6-dimethoxyphenyl)-5-(pyridin-3-yl)-4H-1,2,4-triazol-3-yl)-1-ethoxy-1-(5-methylpyrimidin-2-yl)propane-2-sulfonamide] | 15 | 25 | 0.85 | increase in cardiac contractility | increases load independent cardiac contractility | increases load independent cardiac relaxation | MI Rat Model dP/dtmax (%) (heart failure rat model): 20%
COc1cccc(OC)c1-n1c(NS(=O)(=O)[C@@H](C)[C@H](C)c2ncc(C)cn2)nnc1-c1cncc(C)c1 [Example 263.0, (2S,3R)—N-(4-(2,6-dimethoxyphenyl)-5-(5-methylpyridin-3-yl)-4H-1,2,4-triazol-3-yl)-3-(5-methylpyrimidin-2-yl)butane-2-sulfonamide] |  |  |  | increase in cardiac contractility | increases load independent cardiac contractility | increases load independent cardiac relaxation | 
COc1cccc(OC)c1-n1c(NS(=O)(=O)[C@@H](C)[C@H](O)c2ncc(C)cn2)nnc1-c1cncc(C)c1 [Example 371.0, (1R,2S)—N-(4-(2,6-dimethoxyphenyl)-5-(5-methylpyridin-3-yl)-4H-1,2,4-triazol-3-yl)-1-hydroxy-1-(5-methylpyrimidin-2-yl)propane-2-sulfonamide] |  |  |  |  | increases load independent cardiac contractility | increases load independent cardiac relaxation | 
COc1cccc(OC)c1-n1c(NS(=O)(=O)[C@@H](C)[C@H](C)c2ncc(C)cn2)nnc1-c1cccnc1 [Example 586.0, (2S,3R)—N-(4-(2,6-dimethoxyphenyl)-5-(3-pyridinyl)-4H-1,2,4-triazol-3-yl)-3-(5-methyl-2-pyrimidinyl)-2-butanesulfonamide] |  |  | 0.3 | increase in cardiac contractility | increases load independent cardiac contractility | increases load independent cardiac relaxation | 
Cc1cnc([C@@H](C)[C@H](C)S(=O)(=O)Nc2nnc(-c3cncc(C)c3)n2-c2c(F)cccc2F)nc1 [Example 826.0, (2S,3R)-N-(4-(2,6-difluorophenyl)-5-(5-methyl-3-pyridinyl)-4H-1,2,4-triazol-3-yl)-3-(5-methyl-2-pyrimidinyl)-2-butanesulfonamide, (2R,3S)-N-(4-(2,6-difluorophenyl)-5-(5-methyl-3-pyridinyl)-4H-1,2,4-triazol-3-yl)-3-(5-methyl-2-pyrimidinyl)-2-butanesulfonamide] | 6.02 | 5.16 |  |  |  |  | 
COc1cccc(-c2nnc(NS(=O)(=O)[C@@H](C)[C@H](C)c3cnc(C)cn3)n2C2CCOCC2)n1 [Example 843.0, (2S,3R)-N-(5-(6-methoxy-2-pyridinyl)-4-(tetrahydro-2H-pyran-4-yl)-4H-1,2,4-triazol-3-yl)-3-(5-methyl-2-pyrazinyl)-2-butanesulfonamide] |  |  | 970 |  |  |  | 
COc1cnc([C@@H](C)[C@H](C)S(=O)(=O)Nc2nnc(-c3cccc(OC)n3)n2C2CCOCC2)cn1 [Example 844.0, (2S,3R)-3-(5-methoxy-2-pyrazinyl)-N-(5-(6-methoxy-2-pyridinyl)-4-(tetrahydro-2H-pyran-4-yl)-4H-1,2,4-triazol-3-yl)-2-butanesulfonamide] |  |  | 86 |  |  |  | 
CCCCc1nc(Cl)c(CO)n1Cc1ccc(-c2ccccc2-c2nn[nH]n2)cc1 [losartan] |  |  |  |  |  |  | positive cooperativity induced by APJ small molecule agonists in the presence of AngII (APJ/AT1R): relieved this cooperativity
(2S)-N-(4-(2,6-dimethoxyphenyl)-5-(5-methoxy-2-pyridinyl)-4H-1,2,4-triazol-3-yl)-1-(5-fluoro-2-pyrimidinyl)-2-propanesulfonamide and (2R)-N-(4-(2,6-dimethoxyphenyl)-5-(5-methoxy-2-pyridinyl)-4H-1,2,4-triazol-3-yl)-1-(5-fluoro-2-pyrimidinyl)-2-propanesulfonamide [Example 153.0] |  |  | 160 |  |  |  | 

From patent US10058550B2, “Methods of treating heart failure” (priority 2015, dated 2018)
